Measurements published in ChEMBL document CHEMBL5465560, “Selectivity Literature for EUbOPEN Chemogenomic Library” (2024).

Columns and labels:
[1] = target: Mitogen-activated protein kinase 10 (Homo sapiens, UniProt P53779); test: Selectivity interaction (KinomeScan (DiscoverX)) EUB0000695a MAPK10; settings: at 100 nM
[2] = target: Homeodomain-interacting protein kinase 3 (Homo sapiens, UniProt Q9H422); test: Selectivity interaction (KinomeScan (DiscoverX)) EUB0001079a HIPK3; settings: at 1 µM
[3] = tested on: Leucine-rich repeat serine/threonine-protein kinase 2 (Homo sapiens), Q5S007 [G2019S]; test: Selectivity interaction (Adapta Assay) EUB0001632a LRRK2; settings: at 10 µM
[4] = target: T1, Serine/threonine-protein kinase 17B (Homo sapiens) (UniProt O94768); settings: at 10 µM
T1 sequence (whole entry): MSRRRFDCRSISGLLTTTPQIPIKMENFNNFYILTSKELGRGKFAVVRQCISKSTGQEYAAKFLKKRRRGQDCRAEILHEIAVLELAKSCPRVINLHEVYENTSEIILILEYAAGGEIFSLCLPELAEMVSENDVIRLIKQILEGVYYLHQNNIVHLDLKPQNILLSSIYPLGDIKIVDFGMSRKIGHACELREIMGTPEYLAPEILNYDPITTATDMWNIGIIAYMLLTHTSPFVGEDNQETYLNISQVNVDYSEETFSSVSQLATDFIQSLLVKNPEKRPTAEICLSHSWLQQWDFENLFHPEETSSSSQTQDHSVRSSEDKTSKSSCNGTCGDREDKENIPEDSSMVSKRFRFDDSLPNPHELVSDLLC

[5] = target: Serine/threonine-protein kinase OSR1 (Homo sapiens) (UniProt O95747); settings: at 10 µM
[6] = target: 5'-AMP-activated protein kinase catalytic subunit alpha-2 (Homo sapiens) (UniProt P54646); settings: at 10 µM
[7] = target: Cyclin-dependent kinase 4 (Homo sapiens, UniProt P11802); test: Selectivity interaction (Kinase panel (33PanQinase(R) Activity Assay)) EUB0000877a CDK4
[8] = target: Phosphatidylinositol 3-kinase catalytic subunit type 3 (Homo sapiens, UniProt Q8NEB9); test: Selectivity interaction (ProQinase) EUB0000171b PIK3C3
[9] = target: RAC-alpha serine/threonine-protein kinase (Homo sapiens, UniProt P31749); test: Selectivity interaction (KinomeScan (DiscoverX)) EUB0000607a AKT1; settings: at 10 µM
[10] = target: Tyrosine-protein kinase Fyn (Homo sapiens) (UniProt P06241); test: Selectivity interaction (ActivX KiNativ screen (kinase selectivity in THP-1 cell lysates)) EUB0000639a FYN; assay type: subcellular; settings: lysate, at 5 µM
[11] = target: T2, Phosphatidylinositol 5-phosphate 4-kinase type-2 gamma (Homo sapiens) (UniProt Q8TBX8); test: Selectivity interaction (ActivX KiNativ screen (kinase selectivity in THP-1 cell lysates)) EUB0000639a PIP4K2C; assay type: subcellular; settings: lysate, at 5 µM
T2 sequence (whole entry): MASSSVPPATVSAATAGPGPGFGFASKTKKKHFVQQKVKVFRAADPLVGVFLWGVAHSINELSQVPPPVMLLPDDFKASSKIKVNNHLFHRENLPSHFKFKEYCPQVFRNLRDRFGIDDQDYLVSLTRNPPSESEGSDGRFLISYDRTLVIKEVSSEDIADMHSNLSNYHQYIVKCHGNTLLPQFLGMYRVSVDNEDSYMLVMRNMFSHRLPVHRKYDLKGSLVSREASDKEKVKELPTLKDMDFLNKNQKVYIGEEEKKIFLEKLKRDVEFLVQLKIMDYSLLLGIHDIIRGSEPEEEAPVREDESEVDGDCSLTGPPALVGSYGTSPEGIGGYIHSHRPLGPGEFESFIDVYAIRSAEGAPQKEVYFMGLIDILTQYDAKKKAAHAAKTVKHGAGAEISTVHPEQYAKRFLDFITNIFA

[12] = target: T3, Tyrosine-protein kinase TXK (Homo sapiens) (UniProt P42681); test: Selectivity interaction (Kinase panel (Invitrogen)) EUB0000639a TXK; settings: at 200 nM
T3 sequence (whole entry): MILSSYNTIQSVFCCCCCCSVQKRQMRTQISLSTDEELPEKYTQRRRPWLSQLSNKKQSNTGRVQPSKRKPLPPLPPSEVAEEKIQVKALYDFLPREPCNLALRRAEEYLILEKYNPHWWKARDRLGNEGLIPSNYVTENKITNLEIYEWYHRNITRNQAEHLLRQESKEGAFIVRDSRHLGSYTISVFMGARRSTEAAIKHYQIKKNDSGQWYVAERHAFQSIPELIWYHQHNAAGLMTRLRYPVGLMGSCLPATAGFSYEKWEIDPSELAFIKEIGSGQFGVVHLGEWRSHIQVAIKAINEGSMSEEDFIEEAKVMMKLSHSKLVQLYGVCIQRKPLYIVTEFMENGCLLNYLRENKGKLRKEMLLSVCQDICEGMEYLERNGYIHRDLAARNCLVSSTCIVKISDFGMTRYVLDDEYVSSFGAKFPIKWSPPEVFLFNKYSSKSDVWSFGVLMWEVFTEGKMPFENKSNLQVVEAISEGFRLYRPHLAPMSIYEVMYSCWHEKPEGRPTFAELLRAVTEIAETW

[13] = target: T4, Tyrosine-protein kinase ITK/TSK (Homo sapiens) (UniProt Q08881); test: Selectivity interaction (KinomeScan (DiscoverX)) EUB0000655a ITK; settings: at 10 µM
T4 sequence (whole entry): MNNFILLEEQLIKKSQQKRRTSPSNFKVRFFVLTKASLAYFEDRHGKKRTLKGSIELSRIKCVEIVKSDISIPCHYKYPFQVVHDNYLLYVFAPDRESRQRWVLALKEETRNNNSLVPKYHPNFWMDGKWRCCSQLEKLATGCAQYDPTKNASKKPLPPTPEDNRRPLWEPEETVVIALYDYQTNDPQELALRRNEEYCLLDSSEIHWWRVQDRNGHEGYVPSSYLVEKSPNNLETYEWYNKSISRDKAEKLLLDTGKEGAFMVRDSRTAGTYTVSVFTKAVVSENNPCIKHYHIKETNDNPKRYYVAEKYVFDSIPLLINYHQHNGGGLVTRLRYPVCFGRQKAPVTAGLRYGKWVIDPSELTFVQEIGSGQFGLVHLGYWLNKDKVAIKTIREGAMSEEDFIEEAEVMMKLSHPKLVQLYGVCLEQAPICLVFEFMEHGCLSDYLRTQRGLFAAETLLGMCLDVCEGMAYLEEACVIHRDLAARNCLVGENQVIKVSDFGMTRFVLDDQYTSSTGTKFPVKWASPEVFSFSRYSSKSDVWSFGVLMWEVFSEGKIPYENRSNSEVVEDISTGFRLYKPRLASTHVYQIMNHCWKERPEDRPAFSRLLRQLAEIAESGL

[14] = target: Wee1-like protein kinase 2 (Homo sapiens) (UniProt P0C1S8); test: Selectivity interaction (KinomeScan (DiscoverX)) EUB0000655a WEE2; settings: at 10 µM
[15] = target: Serine/threonine-protein kinase MRCK alpha (Homo sapiens) (UniProt Q5VT25); settings: at 10 µM
[16] = target: Tyrosine-protein kinase HCK (Homo sapiens) (UniProt P08631); settings: at 10 µM

Phosphatidylinositol 3-kinase catalytic subunit type 3, sequence (Q8NEB9 whole entry): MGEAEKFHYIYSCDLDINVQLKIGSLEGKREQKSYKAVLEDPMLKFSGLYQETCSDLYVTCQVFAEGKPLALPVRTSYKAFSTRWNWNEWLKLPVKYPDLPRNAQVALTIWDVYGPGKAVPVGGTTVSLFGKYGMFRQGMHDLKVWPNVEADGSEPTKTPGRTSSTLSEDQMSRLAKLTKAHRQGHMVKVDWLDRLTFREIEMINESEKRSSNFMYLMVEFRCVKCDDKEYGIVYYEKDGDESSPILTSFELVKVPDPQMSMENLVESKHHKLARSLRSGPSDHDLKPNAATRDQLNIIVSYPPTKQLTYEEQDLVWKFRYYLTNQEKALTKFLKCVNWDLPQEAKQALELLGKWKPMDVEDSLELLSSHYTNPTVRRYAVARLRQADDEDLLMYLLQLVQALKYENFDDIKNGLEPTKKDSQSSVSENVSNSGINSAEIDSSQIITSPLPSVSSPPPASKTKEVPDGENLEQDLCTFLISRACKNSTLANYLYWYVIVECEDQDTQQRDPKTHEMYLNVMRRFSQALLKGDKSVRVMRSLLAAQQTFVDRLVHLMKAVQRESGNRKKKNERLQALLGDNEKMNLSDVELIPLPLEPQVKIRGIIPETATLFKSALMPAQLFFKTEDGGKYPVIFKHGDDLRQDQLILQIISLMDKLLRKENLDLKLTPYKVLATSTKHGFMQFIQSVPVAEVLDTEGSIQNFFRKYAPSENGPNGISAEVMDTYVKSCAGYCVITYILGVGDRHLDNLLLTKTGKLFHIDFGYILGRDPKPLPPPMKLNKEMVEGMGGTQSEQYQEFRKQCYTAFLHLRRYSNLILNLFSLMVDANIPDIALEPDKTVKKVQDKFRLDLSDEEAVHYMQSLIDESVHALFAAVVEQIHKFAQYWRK
5'-AMP-activated protein kinase catalytic subunit alpha-2 (Homo sapiens), sequence (P54646 whole entry, looked up): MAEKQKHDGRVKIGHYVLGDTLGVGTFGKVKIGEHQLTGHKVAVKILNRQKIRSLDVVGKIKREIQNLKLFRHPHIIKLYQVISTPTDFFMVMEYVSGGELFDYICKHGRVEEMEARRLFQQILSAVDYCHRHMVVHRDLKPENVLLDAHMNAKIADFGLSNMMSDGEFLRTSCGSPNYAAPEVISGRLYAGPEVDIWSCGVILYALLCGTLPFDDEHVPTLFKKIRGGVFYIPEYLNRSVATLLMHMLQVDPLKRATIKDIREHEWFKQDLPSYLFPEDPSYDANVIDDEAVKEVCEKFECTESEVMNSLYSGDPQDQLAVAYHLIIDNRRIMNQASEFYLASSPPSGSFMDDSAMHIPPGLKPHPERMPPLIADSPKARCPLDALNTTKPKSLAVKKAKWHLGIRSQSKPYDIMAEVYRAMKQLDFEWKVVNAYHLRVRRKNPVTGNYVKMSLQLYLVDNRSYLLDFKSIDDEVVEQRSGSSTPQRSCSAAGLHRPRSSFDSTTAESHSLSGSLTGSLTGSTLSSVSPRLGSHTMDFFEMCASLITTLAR
Homeodomain-interacting protein kinase 3, sequence (Q9H422 whole entry, looked up): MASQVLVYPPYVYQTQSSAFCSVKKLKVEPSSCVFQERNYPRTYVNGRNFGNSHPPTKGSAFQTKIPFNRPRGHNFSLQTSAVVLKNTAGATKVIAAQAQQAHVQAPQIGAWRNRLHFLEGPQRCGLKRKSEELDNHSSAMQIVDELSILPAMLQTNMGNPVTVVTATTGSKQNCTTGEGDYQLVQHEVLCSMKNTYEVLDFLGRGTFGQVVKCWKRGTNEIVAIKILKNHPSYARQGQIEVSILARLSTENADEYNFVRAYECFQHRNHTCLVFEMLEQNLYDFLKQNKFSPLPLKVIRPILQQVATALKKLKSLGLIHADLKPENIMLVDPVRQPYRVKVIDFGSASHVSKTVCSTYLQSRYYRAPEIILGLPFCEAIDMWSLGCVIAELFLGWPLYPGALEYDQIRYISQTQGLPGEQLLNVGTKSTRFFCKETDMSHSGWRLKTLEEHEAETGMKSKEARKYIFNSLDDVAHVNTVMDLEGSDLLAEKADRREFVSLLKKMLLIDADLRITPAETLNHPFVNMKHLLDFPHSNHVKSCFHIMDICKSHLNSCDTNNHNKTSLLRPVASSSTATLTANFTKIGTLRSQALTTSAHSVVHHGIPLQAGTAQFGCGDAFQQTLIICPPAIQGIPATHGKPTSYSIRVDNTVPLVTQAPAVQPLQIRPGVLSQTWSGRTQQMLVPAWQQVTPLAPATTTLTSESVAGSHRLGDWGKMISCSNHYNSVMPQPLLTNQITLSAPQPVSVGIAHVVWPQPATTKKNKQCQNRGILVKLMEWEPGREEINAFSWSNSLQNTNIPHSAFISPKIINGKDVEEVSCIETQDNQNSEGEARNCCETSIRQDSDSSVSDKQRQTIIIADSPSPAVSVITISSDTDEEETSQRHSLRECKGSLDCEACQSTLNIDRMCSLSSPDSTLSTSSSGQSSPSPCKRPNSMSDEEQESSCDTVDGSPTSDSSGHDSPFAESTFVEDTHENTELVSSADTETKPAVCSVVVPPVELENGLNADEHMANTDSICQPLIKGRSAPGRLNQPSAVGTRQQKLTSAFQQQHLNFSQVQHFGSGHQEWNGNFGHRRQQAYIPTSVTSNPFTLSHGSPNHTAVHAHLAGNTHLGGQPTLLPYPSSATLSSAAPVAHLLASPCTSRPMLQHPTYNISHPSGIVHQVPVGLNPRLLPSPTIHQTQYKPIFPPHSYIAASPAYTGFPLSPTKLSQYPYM
Serine/threonine-protein kinase MRCK alpha (Homo sapiens), sequence (Q5VT25 whole entry): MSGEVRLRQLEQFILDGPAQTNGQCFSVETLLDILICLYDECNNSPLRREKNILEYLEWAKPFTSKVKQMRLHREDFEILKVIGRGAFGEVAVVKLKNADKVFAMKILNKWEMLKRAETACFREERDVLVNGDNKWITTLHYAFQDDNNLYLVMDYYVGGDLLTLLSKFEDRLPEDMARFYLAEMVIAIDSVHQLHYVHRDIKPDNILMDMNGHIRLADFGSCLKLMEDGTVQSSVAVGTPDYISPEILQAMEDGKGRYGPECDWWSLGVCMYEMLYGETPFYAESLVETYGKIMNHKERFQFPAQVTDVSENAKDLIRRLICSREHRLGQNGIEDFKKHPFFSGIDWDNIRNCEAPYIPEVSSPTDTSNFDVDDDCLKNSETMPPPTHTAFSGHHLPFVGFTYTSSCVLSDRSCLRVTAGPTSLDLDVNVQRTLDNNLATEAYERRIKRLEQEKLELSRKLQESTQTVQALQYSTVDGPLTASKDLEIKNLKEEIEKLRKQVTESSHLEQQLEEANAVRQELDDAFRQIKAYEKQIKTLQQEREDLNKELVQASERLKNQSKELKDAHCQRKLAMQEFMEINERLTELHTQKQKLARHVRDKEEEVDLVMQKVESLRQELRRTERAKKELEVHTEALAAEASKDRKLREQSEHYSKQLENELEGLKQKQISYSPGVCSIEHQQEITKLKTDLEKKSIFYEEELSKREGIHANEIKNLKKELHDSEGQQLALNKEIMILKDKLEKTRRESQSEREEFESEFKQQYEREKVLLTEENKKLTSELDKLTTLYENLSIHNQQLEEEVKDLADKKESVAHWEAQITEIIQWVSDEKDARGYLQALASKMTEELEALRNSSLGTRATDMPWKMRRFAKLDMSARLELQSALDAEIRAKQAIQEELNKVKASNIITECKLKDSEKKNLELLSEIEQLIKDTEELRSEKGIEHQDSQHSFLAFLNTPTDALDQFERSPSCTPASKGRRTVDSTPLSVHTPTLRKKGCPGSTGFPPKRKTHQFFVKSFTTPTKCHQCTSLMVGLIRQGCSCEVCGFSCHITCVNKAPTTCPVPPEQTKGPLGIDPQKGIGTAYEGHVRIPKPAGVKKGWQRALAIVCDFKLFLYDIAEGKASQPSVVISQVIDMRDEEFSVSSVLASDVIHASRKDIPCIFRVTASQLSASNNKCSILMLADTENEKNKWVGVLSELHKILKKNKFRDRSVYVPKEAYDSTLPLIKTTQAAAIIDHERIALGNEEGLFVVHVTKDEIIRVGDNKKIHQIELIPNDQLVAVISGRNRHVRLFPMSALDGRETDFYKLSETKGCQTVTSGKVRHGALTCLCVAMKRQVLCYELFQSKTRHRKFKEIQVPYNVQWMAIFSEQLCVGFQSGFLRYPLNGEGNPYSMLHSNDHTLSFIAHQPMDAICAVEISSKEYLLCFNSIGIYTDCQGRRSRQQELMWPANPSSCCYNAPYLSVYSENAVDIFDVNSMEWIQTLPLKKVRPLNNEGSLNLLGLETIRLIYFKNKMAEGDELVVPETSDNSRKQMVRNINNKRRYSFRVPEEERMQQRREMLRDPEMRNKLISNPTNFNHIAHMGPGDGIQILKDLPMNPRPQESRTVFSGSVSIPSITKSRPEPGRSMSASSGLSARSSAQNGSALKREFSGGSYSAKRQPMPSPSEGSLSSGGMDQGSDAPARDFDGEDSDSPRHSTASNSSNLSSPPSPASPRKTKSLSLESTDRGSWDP
Tyrosine-protein kinase Fyn (Homo sapiens), sequence (P06241 2-537 limits assumed): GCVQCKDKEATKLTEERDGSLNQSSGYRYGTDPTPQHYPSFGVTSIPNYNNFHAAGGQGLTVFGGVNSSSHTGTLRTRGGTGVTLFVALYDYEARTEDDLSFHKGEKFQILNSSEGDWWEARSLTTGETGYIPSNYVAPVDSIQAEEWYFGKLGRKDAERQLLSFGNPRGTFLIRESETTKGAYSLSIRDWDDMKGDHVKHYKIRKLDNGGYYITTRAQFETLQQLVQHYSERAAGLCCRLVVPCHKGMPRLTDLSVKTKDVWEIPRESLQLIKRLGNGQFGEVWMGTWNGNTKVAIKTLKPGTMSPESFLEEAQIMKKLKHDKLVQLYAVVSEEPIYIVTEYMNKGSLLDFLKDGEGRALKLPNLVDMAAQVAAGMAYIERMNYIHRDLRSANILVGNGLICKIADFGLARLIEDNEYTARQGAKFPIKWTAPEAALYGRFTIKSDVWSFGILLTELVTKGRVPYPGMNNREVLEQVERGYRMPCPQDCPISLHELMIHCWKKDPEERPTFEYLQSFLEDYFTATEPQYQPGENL

Q: Which % of control [1] does the source give for Cc1cc(F)c(C(=O)Nc2cccc(-c3nncn3C(C)C)n2)cc1-n1cnc(C2CC2)c1 here?
A: The % of control was 71%.

Q: Nc1cnc(N2CCc3cc(S(=O)(=O)Nc4c(F)cc(Cl)cc4F)cc(N4CCCC4=O)c32)nc1 [TP-020n] was tested. Which % of control [2] did it give?
A: The % of control was 100%.

Q: With Cn1cc(-n2cnc3c(NCc4nc5cc(Cl)c(Cl)cc5[nH]4)nc(N4CCOCC4)nc32)cn1 as the molecule, how does the % of inhibition [3] read?
A: The % of inhibition was 95%.

Q: Which results are given for Cc1cc([C@@H](C)Nc2ccccc2C(=O)O)c2nc(N3CCOCC3)cc(=O)n2c1 [AZD-6482]?
A: % of control [4]: 100%; % of control [5]: 100%; % of control [6]: 88%

Q: With CCC(=O)N1CC[C@H](Nc2ncnc3c2CN(c2cnc(OC)c(C(F)(F)F)c2)CC3)C1 [LENIOLISIB] as the molecule, how does the IC50 [7] read?
A: Its IC50 is greater than 10 µM.

Q: What does the source list for C=CC(=O)Nc1cccc(C(=O)Nc2ccc(Nc3cc(-c4[nH]c(SC)nc4C)ccn3)cc2)c1?
A: % of control ([8]; at 1 µM): 108%; % of control ([8]; at 5 µM): 103%

Q: CNC(=O)Nc1ccc(-c2nc(N3CC4CCC(C3)O4)c3cnn(C4CCC5(CC4)OCCO5)c3n2)cc1 was tested. Which % of control [9] did it give?
A: Its % of control is 81%.

Q: What does the source list for CC[C@@H]1[C@H](F)C(=O)N[C@@H]1COc1nccc2cc(C(N)=O)c(OC)cc12 [ZIMLOVISERTIB]?
A: % of inhibition [10]: -13.3%; % of inhibition [11]: 87.4%; % of inhibition [12]: 9.25%

Q: With CN(C)CCOc1ccc(-c2nc(-c3ccncc3)c(-c3ccc4c(c3)CC/C4=N\O)[nH]2)cc1 as the molecule, how does the % of control [13] read?
A: The % of control was 98%.

Q: What about the % of control [14] of the same molecule?
A: The % of control was 100%.

Q: For CCN(CC)CCCCNc1ncc2cc(-c3cc(OC)cc(OC)c3)c(NC(=O)NC(C)(C)C)nc2n1, which % of control [15] is on record?
A: Its % of control is 100%.

Q: And the % of control [16]?
A: The % of control was 100%.
